{"source": "ChEMBL document CHEMBL5512674", "about": "“Novel Acyl Thiourea-Based Hydrophobic Tagging Degraders Exert Potent Anti-Influenza Activity through Two Distinct Endonuclease Polymerase Acidic-Targeted Degradation Pathways” (J Med Chem, 2024)", "key": {"[1]": {"molecular_target": "T1, von Hippel-Lindau disease tumor suppressor/Polymerase acidic protein (Influenza A virus (A/Puerto Rico/8/1934(H1N1))) (UniProt P03433+P40337)", "experiment": "PROTAC activity at Influenza A virus A/WSN/33(H1N1) flag tagged Polymerase acidic protein/VHL (unknown origin) expressed in HEK293T cells assessed as degradation of PA expression at 10 uM incubated for 24 to 48 hrs by Western blotting analysis", "assay_type": "cell-based", "conditions": "time 24-48 hrs"}, "[2]": {"molecular_target": "T1, von Hippel-Lindau disease tumor suppressor/Polymerase acidic protein (Influenza A virus (A/Puerto Rico/8/1934(H1N1)))", "experiment": "PROTAC activity at Influenza A virus A/WSN/33(H1N1) flag tagged Polymerase acidic protein/VHL (unknown origin) expressed in HEK293T cells assessed as degradation of PA expression at 10 uM incubated for 8 hrs by Western blotting analysis", "assay_type": "cell-based"}, "[3]": {"molecular_target": "von Hippel-Lindau disease tumor suppressor/Polymerase basic protein 1 (Influenza A virus (strain A/Puerto Rico/8/1934 H1N1)) (UniProt P03431+P40337)", "experiment": "PROTAC activity at Influenza A virus A/WSN/33(H1N1) flag tagged Polymerase basic protein 1/VHL (unknown origin) expressed in HEK293T cells assessed as degradation of PB1 expression at 10 ug/ml incubated for 24 hrs by Western blotting analysis", "assay_type": "cell-based", "conditions": "dose 10.0 µg/ml"}, "[4]": {"experiment": "Half life in human liver microsomes preincubated for 5 mins followed by NADPH addition and measured for 45 mins by LC-MS analysis", "assay_type": "ADME, Microsome", "conditions": "time 50 min"}, "Influenza A virus [5]": {"system": "Influenza A virus", "experiment": "Anti-influenza activity against Influenza A virus A/WSN/33(H1N1) infected in MDCK cells assessed as downregulation of nucleoprotein expression at 100 nM incubated for 24 hrs by Western blotting analysis relative to control", "assay_type": "functional"}, "Enterovirus [6]": {"system": "Enterovirus", "experiment": "Antiviral activity against Enterovirus CV-A16 infected in RD cells assessed as inhibition of viral replication incubated for 24 hrs by CCK-8 assay", "assay_type": "functional, organism-based"}, "[7]": {"experiment": "Stability in human plasma assessed as compound remaining measured after 30 mins by LC-MS/MS analysis", "assay_type": "ADME, cell-free", "conditions": "read-out: Stability"}, "[8]": {"experiment": "Stability in human plasma assessed as compound remaining by LC-MS/MS analysis", "assay_type": "ADME, cell-free"}, "[9]": {"experiment": "Cytotoxicity against dog MDCK cells assessed as reduction in cell viability incubated for 48 hrs by CCK-8 assay", "assay_type": "toxicity, cell-based, Canis lupus familiaris"}, "[10]": {"experiment": "Half life in dog liver microsomes preincubated for 5 mins followed by NADPH addition and measured for 45 mins by LC-MS analysis", "assay_type": "ADME, Canis lupus familiaris, Microsome", "conditions": "time 50 min"}, "[11]": {"experiment": "Hepatic extraction ratio in human liver microsomes preincubated for 5 mins followed by NADPH addition and measured for 45 mins by LC-MS analysis", "assay_type": "ADME, Microsome", "conditions": "time 50 min, read-out: ERH"}, "Enterovirus [12]": {"system": "Enterovirus", "experiment": "Antiviral activity against Enterovirus CV-B1 infected in RD cells assessed as inhibition of viral replication incubated for 24 hrs by CCK-8 assay", "assay_type": "functional, organism-based"}, "[13]": {"experiment": "Hepatic extraction ratio in dog liver microsomes preincubated for 5 mins followed by NADPH addition and measured for 45 mins by LC-MS analysis", "assay_type": "ADME, Canis lupus familiaris, Microsome", "conditions": "time 50 min, read-out: ERH"}, "[14]": {"molecular_target": "T1, von Hippel-Lindau disease tumor suppressor/Polymerase acidic protein (Influenza A virus (A/Puerto Rico/8/1934(H1N1)))", "experiment": "PROTAC activity at Influenza A virus A/WSN/33(H1N1) flag tagged Polymerase acidic protein/VHL (unknown origin) expressed in HEK293T cells assessed as degradation of PA expression at 5 uM incubated for 24 hrs in presence of proteasome inhibitor MG-132 by Western blotting analysis", "assay_type": "cell-based"}, "[15]": {"experiment": "Intrinsic clearance in human liver microsomes preincubated for 5 mins followed by NADPH addition and measured for 45 mins by LC-MS analysis", "assay_type": "ADME, Microsome", "conditions": "time 50 min, read-out: CLH"}, "[16]": {"experiment": "Binding affinity to Influenza A virus A/WSN/33(H1N1) flag tagged Polymerase acidic protein assessed as dissociation constant incubated for 48 hrs by microscale thermophoresis assay", "conditions": "hek293t"}, "enterovirus D68": {"system": "enterovirus D68", "experiment": "Antiviral activity against enterovirus D68 infected in RD cells assessed as inhibition of viral replication incubated for 24 hrs by CCK-8 assay", "assay_type": "functional, organism-based"}, "[17]": {"experiment": "Half life in mouse liver microsomes preincubated for 5 mins followed by NADPH addition and measured for 45 mins by LC-MS analysis", "assay_type": "ADME, Microsome", "conditions": "time 50 min"}, "[18]": {"molecular_target": "von Hippel-Lindau disease tumor suppressor/Polymerase acidic protein (Influenza A virus (A/Puerto Rico/8/1934(H1N1)), UniProt P03433+P40337)", "experiment": "PROTAC activity at Influenza A virus A/WSN/33(H1N1) flag tagged Polymerase acidic protein/VHL (unknown origin) expressed in HEK293T cells assessed as degradation of PA expression incubated for 24 hrs by Western blotting analysis", "assay_type": "cell-based"}, "[19]": {"molecular_target": "Voltage-gated inwardly rectifying potassium channel KCNH2 (Homo sapiens, UniProt Q12809)", "experiment": "Inhibition of hERG", "assay_type": "toxicity"}, "[20]": {"molecular_target": "von Hippel-Lindau disease tumor suppressor/Polymerase basic protein 2 (Influenza A virus (strain A/Puerto Rico/8/1934 H1N1)) (UniProt P40337+P03428)", "experiment": "PROTAC activity at Influenza A virus A/WSN/33(H1N1) flag tagged Polymerase basic protein 2/VHL (unknown origin) expressed in HEK293T cells assessed as degradation of PB2 expression at 10 ug/ml incubated for 24 hrs by Western blotting analysis", "assay_type": "cell-based", "conditions": "dose 10.0 µg/ml"}, "[21]": {"molecular_target": "T1, von Hippel-Lindau disease tumor suppressor/Polymerase acidic protein (Influenza A virus (A/Puerto Rico/8/1934(H1N1)))", "experiment": "PROTAC activity at Influenza A virus A/WSN/33(H1N1) flag tagged Polymerase acidic protein/VHL (unknown origin) expressed in HEK293T cells assessed as degradation of PA expression at 5 uM incubated for 24 hrs in presence of chloroquine by Western blotting analysis", "assay_type": "cell-based"}, "[22]": {"molecular_target": "T1, von Hippel-Lindau disease tumor suppressor/Polymerase acidic protein (Influenza A virus (A/Puerto Rico/8/1934(H1N1)))", "experiment": "PROTAC activity at Influenza A virus A/WSN/33(H1N1) flag tagged Polymerase acidic protein/VHL (unknown origin) expressed in HEK293T cells assessed as degradation of PA expression incubated for 2 to 10 hrs in presence of CHX by Western blotting analysis", "assay_type": "cell-based", "conditions": "time 2-10 hrs"}, "[23]": {"experiment": "Stability in human plasma assessed as compound remaining measured after 60 mins by LC-MS/MS analysis", "assay_type": "ADME, cell-free", "conditions": "read-out: Stability"}, "[24]": {"experiment": "Stability in human plasma assessed as compound remaining measured after 15 mins by LC-MS/MS analysis", "assay_type": "ADME, cell-free", "conditions": "read-out: Stability"}, "Influenza B virus": {"system": "Influenza B virus", "experiment": "Anti-influenza activity against Influenza B virus Victoria/2/87 infected in HEK293T cells assessed as reduction in virus-induced cytopathic effect incubated for 48 hrs by CCK-8 assay", "assay_type": "functional, organism-based", "conditions": "Victoria/2/87, HEK-293T"}, "Influenza A virus [25]": {"system": "Influenza A virus", "experiment": "Anti-influenza activity against Influenza A virus A/WSN/33(H1N1) infected in MDCK cells assessed as downregulation of nucleoprotein expression incubated for 24 hrs by Western blotting analysis", "assay_type": "functional, organism-based"}}, "note": "Activity calls are given as the source filed them. The rule behind the calls is not given here.", "data": [{"smiles": "CC(C)(C)OC(=O)NCCCC[C@H](NC(=O)OC(C)(C)C)C(=O)NCCCCCCCC(=O)Nc1ccc(NC(=S)NC(=O)c2ccc(C(C)(C)C)cc2)cc1", "values": [{"measurement": "Activity", "setting": "[1]", "result": "Active"}, {"measurement": "Activity", "setting": "[2]", "result": "Active"}, {"measurement": "Activity", "setting": "[3]", "result": "inactive"}, {"measurement": "half-life", "setting": "[4]", "result": 12.7, "unit": "min"}, {"measurement": "Activity", "setting": "Influenza A virus [5]", "result": 35, "unit": "%"}, {"measurement": "Activity", "setting": "Enterovirus [6]", "result": "Active"}, {"measurement": "remaining at 0.5 h", "setting": "[7]", "result": 108, "unit": "%"}, {"measurement": "Stability", "setting": "[8]", "result": 100, "unit": "%"}, {"measurement": "CC50 at 48 h", "setting": "[9]", "result": "> 200000", "unit": "nM"}, {"measurement": "half-life", "setting": "[10]", "result": 19.6, "unit": "min"}, {"measurement": "hepatic extraction ratio at 0.75 h", "setting": "[11]", "result": 0.588}, {"measurement": "Activity", "setting": "Enterovirus [12]", "result": "Active"}, {"measurement": "hepatic extraction ratio at 0.75 h", "setting": "[13]", "result": 0.851}, {"measurement": "Activity", "setting": "[14]", "result": "inactive"}, {"measurement": "CLint scaled", "setting": "[15]", "result": 137, "unit": "mL/min/kg"}, {"measurement": "Kd", "setting": "[16]", "result": 720, "unit": "nM"}, {"measurement": "Activity", "setting": "enterovirus D68", "result": "Active"}, {"measurement": "half-life", "setting": "[17]", "result": 32.1, "unit": "min"}, {"measurement": "DC50", "setting": "[18]", "result": 60, "unit": "nM"}, {"measurement": "inhibition (INH)", "setting": "[19]", "result": "Not Active"}, {"measurement": "Activity", "setting": "[20]", "result": "inactive"}, {"measurement": "Activity", "setting": "[21]", "result": "inactive"}, {"measurement": "Activity", "setting": "[22]", "result": "Active"}, {"measurement": "remaining at 1 h", "setting": "[23]", "result": 96.9, "unit": "%"}, {"measurement": "remaining at 0.25 h", "setting": "[24]", "result": 109, "unit": "%"}, {"measurement": "EC50", "setting": "Influenza B virus", "result": 67, "unit": "nM"}, {"measurement": "Activity", "setting": "Influenza A virus [25]", "result": "Dose-Dependent Effect"}]}]}
